The values below come from patent US20230118642A1, “METHOD FOR TREATING THERAPY-RESISTANT MUC4+ CANCER” (CONSEJO NACIONAL DE INVESTIGACIONES CIENTÍFICAS Y TÉCNICAS, priority 2020, published 2023).

Data set [1] deals with HCC70 triple-negative breast cancer cell line. Put plainly: HCC70 cell viability, CellTiter Glo 2.0. The data set is classed as cell-based. The note with it: 72 h. As for the experimental part:
(§1) FIG. 25(A-C) INB03 enhances sorafenib inhibition in cell proliferation of colon, gastric and triple-negative breast cancer cells. Cell proliferation was evaluated in the HT-29 colon cancer (FIG. 25A), SNU-1 gastric cancer (FIG. 25B) and in the in the HCC-70 triple-negative breast cancer cell lines (FIG. 25C). Cells were treated with vehicle (DMSO 0.1%), sorafenib (Soraf), or INB03 (10 μg/ml), alone or in different combinations for 72 h. (FIGS. 25A and B) HT-29 and SNU-1 cell proliferation was evaluated by cell count Countess automatic cell count. (FIG. 25C) HCC70 cell viability was analyzed by CellTiter Glo 2.0 assay.
FIG. 26 INB03 enhances cediranib inhibition in cell viability of HCC70 triple-negative breast cancer cells. Cell viability was evaluated in the HCC70 cell line. Cells were treated with vehicle (DMSO 0.1%), cediranib (cedir), or INB03 (10 μg/ml), alone or in different combinations for 72 h. Cell viability was analyzed by CellTiter Glo 2.0 assay.
On the technique in general: ATP-based viability assays read luminescence as a measure of living cells.

Another data set deals with MDA-MB-468 cell line. Put plainly: MDA-MB-468 cell viability, CellTiter Glo 2.0. It counts as cell-based. The note with it: Homo sapiens, 72 h, read-out: decrease of MDA-MB-468 cell viability. As for the experimental part:
FIG. 24 INB03 enhances erlotinib inhibition in cell viability of MDA-MB 468 triple-negative breast cancer cells. Cell viability was evaluated in the MDA-MB-468 cell line. Cells were treated with vehicle (DMSO 0.1%), erlotinib (erlot), or INB03 (10 μg/ml), alone or in different combinations for 72 h.

The subject of data set [2] is JIMT-1-shMUC4 cells. Put plainly: JIMT-1-shMUC4 cell proliferation with lapatinib and TNFα blockade, cell count at 72 h. The data set is classed as cell-based. As for the experimental part:
(§2) Then, to study the participation of MUC4 in lapatinib resistance, we transduced the trastuzumab-resistant JIMT-1 cell line with a plasmid encoding a doxycycline (Dox)-inducible shRNA targeting MUC4, and obtained JIMT-1-shMUC4 cells.
(§3) FIG. 18 TNFα blockade sensitizes lapatinib-resistant cells in vitro. Cell proliferation was evaluated in JIMT-1 and JIMT-1-shMUC4 cell lines by cell count at 72 h of treatment. Cells were treated with immunoglobulin G (IgG 5 μg/ml), lapatinib (Lap 1 μM), etanercept (E 5 μg/ml), or INB03 (DN; 10 μg/ml), alone or in different combinations. FIG. 18A. JIMT-1 wild type. FIGS. 18B and 18C JIMT-1-shMUC4 and in C cells were treated with Dox 10 μg/ml for 10 days before and during the experiment to assure MUC4 downregulation.

Another data set has as its system JIMT-1. Put plainly: JIMT-1 migration with lapatinib and TNF-blocking agents. The data set is classed as cell-based. The method, then: (§4) Again, lapatinib is used in the metastatic setting (infra). The metastatic cascade is a multistep process that involves migration and invasion of tumor cells that pass through the basement membrane and extracellular matrix, the intravasation to the lymphatic or vascular circulation, the extravasation and the attachment of a new location to generate a secondary tumor. The migration ability of JIMT-1 treated with lapatinib and TNF-blocking agents was evaluated. […] To study MUC4 contribution on the inhibition of migration observed by simultaneous treatment of TNF-blocking drugs and lapatinib, the JIMT-1 cell line was transduced with a plasmid encoding a doxycycline-inducible shRNA targeting MUC4, and JIMT-1-shMUC4 cells were obtained (FIGS. 16 B and C).

The subject of data set [3] is JIMT-1-shMUC4 cells. Put plainly: JIMT-1-shMUC4 migration with lapatinib and TNF-blocking agents. The data set is classed as cell-based. The method, then:
as §4

Data set [4] relates to SK-OV-3 ovarian cancer cell line. The experiment in a line: SK-OV-3 cell viability, CellTiter Glo 2.0. It counts as cell-based. The note with it: lapatinib 2.5 μM alone, 72 h.
Experimental: Cells were treated with vehicle (DMSO 0.1%), lapatinib (Lap), or NB03 (10 μg/ml), alone or in different combinations for 72 h. (FIG. 22A) SK-OV-3 cells viability was analyzed by CellTiter Glo 2.0 assay. […] Data was analyzed by one-way ANOVA coupled with a Tukey's post hoc test. The data as shown represents mean SEM. *p<0.05, **p<0.01.
Data set [5] relates to SNU-1 gastric cancer cell line. The experiment in a line: SNU-1 cell proliferation, Countess automatic cell count. The data set is classed as cell-based. The note with it: 72 h. The method, then:
In order to extend our findings of the role of INB03 in increasing lapatinib inhibitory effect on HER2+ breast cancer cell proliferation to other tumor types, we used both drugs in the ovarian cancer SK-OV-3 cells and in the gastric SNU-1 cells. Both cell lines express HER2 and MUC4.
FIG. 22(A-B) INB03 enhances lapatinib inhibition in cell proliferation of ovarian and gastric cancer cell. Cell proliferation was evaluated in the SK-OV-3 ovarian cancer cell line (FIG. 22A) and in the SNU-1 gastric cancer cell line. Cells were treated with vehicle (DMSO 0.1%), lapatinib (Lap), or NB03 (10 μg/ml), alone or in different combinations for 72 h. (FIG. 22A) SK-OV-3 cells viability was analyzed by CellTiter Glo 2.0 assay. (FIG. 22B) SNU-1 cell proliferation was evaluated by cell count Countess automatic cell count.
as §1

The conditions of data set [6]: stated without test; cited from earlier work.
For a further data set, the system named is HER2+ breast cancer. To be noted: patients with trastuzumab-resistant disease; cited from earlier work.
In the next data set the test system is HT-29 colon cancer cells. The experiment in a line: HT-29 cell proliferation, Countess automatic cell count. It counts as cell-based. The note with it: 72 h. The method, then:
as §1

For data set [7], the system named is JIMT-1 cell line. The experiment in a line: JIMT-1 cell proliferation with lapatinib and TNFα blockade, cell count at 72 h. The data set is classed as cell-based. To be noted: TNFα blocker simultaneously with lapatinib 1 μM, E 5 μg/ml, INB03 10 μg/ml. As for the experimental part: as §2, §3
Data set [8] has as its system JIMT-1 cell line. The experiment in a line: JIMT-1 cell proliferation, [3H]-thymidine incorporation. The data set is classed as cell-based. To be noted: 48 h treatment, 18 h pulse; T 10 μg/ml, P 10 μg/ml, E 5 μg/ml, DN 2 μg/ml; vs IgG. The method, then:
A strategy of implementing a TNFα blockade was employed, either with Etanercept (E) or the dominant negative protein XPRO1595 (DN) in JIMT-1, de novo T and T+P resistant cell line which produces TNFα. JIMT-1 tumors were established in female nude mice to explore whether TNFα blockade overcomes T+P resistance. Animals were treated with 5 mg/kg of IgG, P, T+P, 10 mg/kg of DN or P+T+DN i.p. twice a week. […] Proliferation of cells treated with IgG, T, P, DN, E (10 μg/ml, 10 μg/ml, 10 μg/ml, 2 μg/ml and 5 μg/ml respectively) as monotherapy and in different combinations was evaluated by cell count or [3H]-thymidine incorporation. The combination of TNFα blockade with T+P inhibited cell proliferation vs. IgG, P+T, P+E, P+DN (p<0.0001).
Cell proliferation in JIMT-1 cell line was evaluated by ^3[H]-thymidine incorporation assay at 48 h of treatment with 18 h pulse (See Rivas M A, et al., Exp Cell Res 2008; 314:509-29, the contents of which are hereby incorporated by reference). […] The data as shown in FIG. 3 represents mean±standard deviation *p<0.05, **p<0.01, ***p<0.001 vs. IgG.
Background: Uptake of a labelled nucleoside into DNA is a usual measure of proliferation.

Take `COc1cc2c(Oc3ccc4[nH]c(C)cc4c3F)ncnc2cc1OCCCN1CCCC1` [cediranib]: the cytotoxicity at 2.5 µM in data set [1] (Homo sapiens, HCC70, cediranib 2.5 μM alone, read-out: effect on HCC70 cell viability) was found to be 20%. Moreover, in data set [1] (Homo sapiens, HCC70, cediranib 5 μM alone, read-out: effect on HCC70 cell viability), the cytotoxicity at 5 µM amounted to 46%.
In the case of `C#Cc1cccc(Nc2ncnc3cc(OCCOC)c(OCCOC)cc23)c1` [erlotinib], the cytotoxicity at 1.25 µM in the data set with MDA-MB-468 cell line (erlotinib 1.25 μM alone) is 27%. Moreover, the cytotoxicity at 2.5 µM in the data set on MDA-MB-468 cell line (erlotinib 2.5 μM alone) is 38%. Moreover, the cytotoxicity at 5 µM in the data set with MDA-MB-468 cell line (erlotinib 5 μM alone) was determined as 48%.
Consider `CS(=O)(=O)CCNCc1ccc(-c2ccc3ncnc(Nc4ccc(OCc5cccc(F)c5)c(Cl)c4)c3c2)o1` [lapatinib], for which the cell proliferation entry in the data set on JIMT-1-shMUC4 cells [2] (JIMT-1-shMUC4 with Dox 10 μg/ml (MUC4 silenced), lapatinib) was “decrease in JIMT-1 cells proliferation”. Besides, the JIMT-1 migration result in the data set on JIMT-1 (each drug alone) is recorded as “no effect”. Further, in the data set with JIMT-1-shMUC4 cells [3] (JIMT-1-shMUC4 with doxycycline (MUC4 silenced), lapatinib), the cell migration result was “decrease in JIMT-1 cells migration”. In addition, the “effect on viability of SK-OV-3 cells” value in data set [4] is recorded as “no effect”. Also, the “effect on proliferation of SNU-1 cells” value in [5] (lapatinib 1 μM alone) was “no effect”. Further, the “crossing of the blood-brain-barrier” value in [6] was “cross the blood-brain-barrier”. The “patients with clinical benefit” value in the data set on HER2+ breast cancer is under 30%.
For the compound `CNC(=O)c1cc(Oc2ccc(NC(=O)Nc3ccc(Cl)c(C(F)(F)F)c3)cc2)ccn1` [sorafenib], the “effect on SNU-1 proliferation” value in data set [5] (sorafenib 1.5 μM alone) is “did not affect its proliferation”. The “decrease of SNU-1 cell proliferation” value in data set [5] (sorafenib 3 μM alone) was found to be 38%. The “effect on HT-29 cell proliferation” value in the data set on HT-29 colon cancer cells (sorafenib 2.5 μM alone) is given as “no inhibitory effect”. In addition, the “reduction of HT-29 proliferation” value in the data set on HT-29 colon cancer cells (sorafenib 10 μM alone) was found to be 62%. Moreover, the cytotoxicity at 1.5 µM in data set [1] (Homo sapiens, HCC70, sorafenib 1.5 μM alone, read-out: HCC70 viability reduction) came out at 44%. In addition, the “effect on HCC70 viability” value in data set [1] (sorafenib 1 μM alone) was “no effect”.
On to etanercept, for which the JIMT-1 cell proliferation entry with JIMT-1 cell line [7] is “reduces JIMT-1 cell proliferation”. Also, the cell proliferation result in the data set on JIMT-1-shMUC4 cells [2] (JIMT-1-shMUC4 with Dox, TNFα blocker added to lapatinib) is “did not further induce a decrease in cell proliferation”. Besides, the JIMT-1 migration entry in the data set with JIMT-1 (TNF blocker together with lapatinib) was “impairs JIMT-1 migration”; with JIMT-1 (each drug alone) it was “no effect”. The cell migration result with JIMT-1-shMUC4 cells [3] (JIMT-1-shMUC4 with doxycycline, TNF blocker added to lapatinib) is given as “did not further induce a decrease in cell migration”; in the data set with JIMT-1-shMUC4 cells [3] (JIMT-1shMUC4 without doxycycline, TNF blocker with lapatinib), “decreased their migration”.
Take “pertuzumab: monoclonal antibody that disrupts HER2/HER3 dimerization”: the “cell proliferation in JIMT-1 cell line” value in the data set with JIMT-1 cell line [8] is recorded as “negligible, if any, impact”.
